Patent US20240116877A1, “KIT KINASE INHIBITORS AND METHODS OF USE THEREOF” (Deciphera Pharmaceuticals, LLC, priority 2021, published 2024)
Read-outs that look alike come from different tables or passages of the source.

Legend:
c-KIT kinase (uKIT) = c-KIT kinase (uKIT) (Homo sapiens (Human), UniProt P10721); test: Biochemical Assay for uKIT (coupled pyruvate kinase/lactate dehydrogenase assay); conditions: Inhibition of biochemical activity of uKIT kinase; 1 mM ATP
How it was run: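 IC50 from percent inhibition of reaction rate over 2-3 h, relative to no-compound and known-inhibitor controls. KIT enzyme (16 nM or 4.36 nM, two sequences) ran with 1 mM ATP and 0.7 mg/mL PE4Y in Tris pH 7.5, 30° C; ATP turnover coupled to NADH loss at 340 nm.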

Ba/F3 KIT mutant cells = test: Ba/F3 mutant KIT Cell Proliferation Assays (resazurin); format: cell-based; conditions: Mus musculus, BaF3
How it was run: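 IC50 values come from resazurin fluorescence (ex 540, em 600) after 5 h dye exposure, added as a 440 μM solution. Cells were IL-3-independent Ba/F3 expressing mutant KIT from a lentiviral vector, puromycin-selected.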

GIST 430 cells = test: GIST 430 Cell Proliferation Assay (resazurin); format: cell-based; conditions: Homo sapiens; GIST430 cell proliferation
How it was run: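 Five thousand cells per well were exposed to serially diluted compound in complete growth medium for 115 h at 37 degrees Celsius, 5% CO2. Resazurin was then added for a further 5 h, fluorescence read at 540 nm excitation/600 nm emission, and IC50 values calculated.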

[1] = Ba/F3 KIT AYdup-D816G mutant cell proliferation, read-out: AYdup-D816G IC50
[2] = Ba/F3 KIT AYdup-V654A mutant cell proliferation, read-out: AYdup-V654A IC50
[3] = Ba/F3 KIT exon11del-V654A mutant cell proliferation, read-out: exon11del-V654A IC50
[4] = Ba/F3 KIT exon11del-Y823D mutant cell proliferation, read-out: exon11del-Y823D IC50
[5] = Ba/F3 KIT AYdup mutant cell proliferation, read-out: AYdup IC50

Chain of c-KIT kinase (uKIT) (P10721 other isoform, or with tags, fused parts or gaps): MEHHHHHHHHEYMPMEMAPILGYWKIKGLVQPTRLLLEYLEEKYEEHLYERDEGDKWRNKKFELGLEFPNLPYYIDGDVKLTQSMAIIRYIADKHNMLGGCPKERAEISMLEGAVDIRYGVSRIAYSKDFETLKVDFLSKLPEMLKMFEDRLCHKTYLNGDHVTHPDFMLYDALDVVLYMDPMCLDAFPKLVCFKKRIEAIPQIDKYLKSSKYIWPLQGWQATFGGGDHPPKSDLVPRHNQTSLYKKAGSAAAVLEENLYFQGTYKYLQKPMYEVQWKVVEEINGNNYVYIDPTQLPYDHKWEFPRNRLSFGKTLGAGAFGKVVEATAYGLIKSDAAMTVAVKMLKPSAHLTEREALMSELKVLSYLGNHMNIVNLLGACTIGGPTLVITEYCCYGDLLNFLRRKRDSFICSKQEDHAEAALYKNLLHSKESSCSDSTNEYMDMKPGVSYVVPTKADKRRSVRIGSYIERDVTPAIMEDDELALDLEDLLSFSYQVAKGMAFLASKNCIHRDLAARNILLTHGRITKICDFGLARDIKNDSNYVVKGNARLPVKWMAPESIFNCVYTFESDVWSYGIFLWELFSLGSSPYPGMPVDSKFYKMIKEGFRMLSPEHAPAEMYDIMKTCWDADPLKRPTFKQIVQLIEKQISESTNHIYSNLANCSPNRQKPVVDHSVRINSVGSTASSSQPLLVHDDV

| SMILES | IC50 (c-KIT kinase (uKIT)) [µM] | IC50 (Ba/F3 KIT mutant cells; [1]) [µM] | IC50 (Ba/F3 KIT mutant cells; [2]) [µM] | IC50 (Ba/F3 KIT mutant cells; [3]) [µM] | IC50 (Ba/F3 KIT mutant cells; [4]) [µM] | IC50 (Ba/F3 KIT mutant cells; [5]) [µM] | IC50 (GIST 430 cells) [µM] |
| --- | --- | --- | --- | --- | --- | --- | --- |
| COCCOc1cc(F)c2c(Nc3ccc(NC(=O)N[C@H]4CC[C@@H](C(F)(F)F)CC4)cc3)ncnc2c1 [Example 36] | ≤ 0.01 | 0.01 to 0.1 | 0.01 to 0.1 | ≤ 0.01 | 0.1 to 1 |  | 0.01 to 0.1 |
| CC(C)(C#N)CCNC(=O)Nc1ccc(Nc2ncnc3cc(OCCN4CCOCC4)cc(F)c23)cc1 [Example 104] | ≤ 0.01 | ≤ 0.01 | 0.01 to 0.1 | ≤ 0.01 | ≤ 0.01 | ≤ 0.01 | ≤ 0.01 |
| COCCOc1cc(F)c2c(Nc3ccc(NC(=O)CC(=O)N(C)CC(C)(C)C)cc3)ncnc2c1 [Example 51] | 0.01 to 0.1 | 0.01 to 0.1 | 0.01 to 0.1 | 0.01 to 0.1 | 0.01 to 0.1 | 0.01 to 0.1 | ≤ 0.01 |
| CC(C)(F)CCNC(=O)Nc1ccc(Nc2ncnc3cc(OCCN4CCOCC4)cc(F)c23)cc1 [Example 39] | ≤ 0.01 | 0.01 to 0.1 | 0.01 to 0.1 | 0.01 to 0.1 | 0.01 to 0.1 | ≤ 0.01 | ≤ 0.01 |
| COCCOc1cc(F)c2c(Nc3ccc(NC(=O)NCCC(C)(C)OC)cc3)ncnc2c1 [Example 10] | ≤ 0.01 | ≤ 0.01 | 0.01 to 0.1 | ≤ 0.01 | 0.01 to 0.1 | ≤ 0.01 | ≤ 0.01 |
| COCCOc1cc(F)c2c(Nc3ccc(NC(=O)CC(=O)NCC(C)(C)C(F)(F)F)cc3)ncnc2c1 [Example 88] | 0.01 to 0.1 | ≤ 0.01 | 0.01 to 0.1 | ≤ 0.01 | 0.01 to 0.1 | ≤ 0.01 | ≤ 0.01 |
| COCCOc1cc(F)c2c(Nc3ccc(NC(=O)CC(=O)N(C)C(C)C)cc3)ncnc2c1 [Example 74] | 0.01 to 0.1 |  | 0.01 to 0.1 | 0.01 to 0.1 | 0.1 to 1 |  | 0.01 to 0.1 |
| COCCOc1cc(F)c2c(Nc3ccc(NC(=O)C(=O)NCCC(C)(C)C)cc3)ncnc2c1 [Example 125] | 0.01 to 0.1 |  | 0.01 to 0.1 | 0.01 to 0.1 |  |  | 0.01 to 0.1 |
| COCCOc1cc(F)c2c(Nc3ccc(NC(=O)CC(=O)NC4CC4)cc3)ncnc2c1 [Example 94] | 0.1 to 1 |  | 0.1 to 1 | 0.1 to 1 |  |  | 0.1 to 1 |
| COCCOc1cc(F)c2c(Nc3ccc(NC(=O)CC(=O)NCC(C)(C)OC)cc3)ncnc2c1 [Example 5, N^1-(4-((5-fluoro-7-(2-methoxyethoxy)quinazolin-4-yl)amino)phenyl)-N^3-(2-methoxy-2-methylpropyl)malonamide] | 0.01 to 0.1 |  | 0.01 to 0.1 | 0.01 to 0.1 | > 1 |  | 0.01 to 0.1 |
| COCCOc1cc(F)c2c(Nc3ccc(NC(=O)CC(=O)NC(C)(C)C4CC4)cc3)ncnc2c1 [Example 131] | 0.01 to 0.1 | 0.01 to 0.1 | 0.01 to 0.1 | ≤ 0.01 | 0.01 to 0.1 | ≤ 0.01 | 0.01 to 0.1 |
| COCCOc1cc(F)c2c(Nc3ccc(NC(=O)NC4CCC(F)(F)CC4)cc3)ncnc2c1 [Example 33] | 0.01 to 0.1 | 0.01 to 0.1 | 0.01 to 0.1 | 0.1 to 1 | 0.1 to 1 |  | 0.01 to 0.1 |
| COCCOc1cc(F)c2c(Nc3ccc(NC(=O)CC(=O)NC4CCC4)cc3)ncnc2c1 [Example 95] | ≤ 0.01 | 0.01 to 0.1 | 0.01 to 0.1 | ≤ 0.01 | 0.01 to 0.1 | ≤ 0.01 | ≤ 0.01 |
| COCCOc1cc(F)c2c(Nc3ccc(NC(=O)C4(C(=O)NCCC(C)(C)F)CC4)cc3)ncnc2c1 [Example 75] | 0.01 to 0.1 |  | 0.1 to 1 | 0.01 to 0.1 | > 1 |  | 0.1 to 1 |
| COCCOc1cc(F)c2c(Nc3ccc(NC(=O)NCCC(C)(C)C#N)cc3F)ncnc2c1 [Example 70] | > 1 |  | 0.1 to 1 | 0.1 to 1 | 0.1 to 1 |  | > 1 |
| COCCOc1cc(F)c2c(Nc3ccc(NC(=O)CC(=O)NCC(F)(F)F)cc3)ncnc2c1 [Example 127] | 0.01 to 0.1 |  | 0.01 to 0.1 | 0.01 to 0.1 | > 1 |  | 0.01 to 0.1 |
| COCCOc1cc(F)c2c(Nc3ccc(NC(=O)CC(=O)NCC4CCCC4)cc3)ncnc2c1 [Example 79] | 0.01 to 0.1 |  | 0.01 to 0.1 | 0.01 to 0.1 | 0.1 to 1 |  | 0.01 to 0.1 |
| COCCOc1cc(F)c2c(Nc3ccc(NC(=O)NCCC(C)(C)F)c(F)c3)ncnc2c1 [Example 64] | 0.01 to 0.1 |  | 0.1 to 1 | 0.01 to 0.1 | 0.1 to 1 |  | 0.01 to 0.1 |
| COCCOc1cc(F)c2c(Nc3ccc(NC(=O)OCCC(C)(C)F)cc3)ncnc2c1 [Example 52] | 0.01 to 0.1 | 0.01 to 0.1 | 0.1 to 1 | 0.01 to 0.1 | 0.1 to 1 | ≤ 0.01 | 0.01 to 0.1 |

Now from value to molecule, other results behind:

| IC50 (c-KIT kinase (uKIT)) [µM] | IC50 (Ba/F3 KIT mutant cells; [1]) [µM] | IC50 (Ba/F3 KIT mutant cells; [2]) [µM] | IC50 (Ba/F3 KIT mutant cells; [3]) [µM] | IC50 (Ba/F3 KIT mutant cells; [4]) [µM] | IC50 (Ba/F3 KIT mutant cells; [5]) [µM] | SMILES | IC50 (GIST 430 cells) [µM] |
| --- | --- | --- | --- | --- | --- | --- | --- |
| 0.01 to 0.1 |  | 0.01 to 0.1 | 0.01 to 0.1 | 0.01 to 0.1 |  | CN1CC[C@H](Oc2cc(F)c3c(Nc4ccc(NC(=O)NCCC(C)(C)F)cc4)ncnc3c2)C1 [Example 172] | 0.01 to 0.1 |
| 0.01 to 0.1 |  | 0.1 to 1 | 0.01 to 0.1 |  |  | COCCOc1cc(F)c2c(Nc3ccc(NC(=O)CC(=O)NCC4(C)COC4)cc3)ncnc2c1 [Example 132] | 0.1 to 1 |
| ≤ 0.01 | 0.01 to 0.1 | 0.01 to 0.1 | 0.01 to 0.1 | 0.1 to 1 | ≤ 0.01 | CC(C)(F)CCNC(=O)Nc1ccc(Nc2ncnc3cc(OCCN4CCCC4)cc(F)c23)cc1 [Example 150] | 0.01 to 0.1 |
| 0.01 to 0.1 |  | 0.01 to 0.1 | 0.1 to 1 | 0.1 to 1 |  | COCCOc1cc(OC)c2c(Nc3ccc(NC(=O)CC(=O)NC(C)(C)C)cc3)ncnc2c1 [Example 177] | 0.01 to 0.1 |
| 0.01 to 0.1 |  | 0.01 to 0.1 | 0.1 to 1 | 0.01 to 0.1 |  | COCCOc1cc(OC)c2c(Nc3ccc(NC(=O)CC(=O)N(C)C(C)(C)C)cc3)ncnc2c1 [Example 192] | 0.01 to 0.1 |
| 0.01 to 0.1 | 0.01 to 0.1 | 0.01 to 0.1 | 0.1 to 1 | 0.01 to 0.1 | 0.01 to 0.1 | COCCOc1cc(OC)c2c(Nc3ccc(NC(=O)CC(=O)NC4CCCC4)cc3)ncnc2c1 [Example 176] | 0.01 to 0.1 |
| ≤ 0.01 |  | 0.01 to 0.1 | 0.01 to 0.1 | 0.01 to 0.1 |  | CC(C)(F)CCNC(=O)Nc1ccc(Nc2ncnc3cc(OC[C@@H]4CCOC4)cc(F)c23)cc1 [Example 149] | 0.01 to 0.1 |
| 0.01 to 0.1 |  | 0.01 to 0.1 | 0.1 to 1 | 0.1 to 1 |  | COCCOc1cc(F)c2c(Nc3ccc(NC(=O)CC(=O)N4CC[C@@H](C)C4)cc3)ncnc2c1 [Example 198] | 0.01 to 0.1 |
| 0.01 to 0.1 | 0.01 to 0.1 | 0.01 to 0.1 | ≤ 0.01 | 0.01 to 0.1 | ≤ 0.01 | COCCOc1cc(F)c2c(Nc3ccc(NC(=O)CC(=O)N(C)C(C)(C)C)cc3)ncnc2c1 [Example 143] | ≤ 0.01 |
| 0.01 to 0.1 | 0.01 to 0.1 | 0.01 to 0.1 | ≤ 0.01 | > 1 | ≤ 0.01 | COCCOc1cc(F)c2c(Nc3ccc(NC(=O)CC(=O)N4CC(C)(C)C4)cc3)ncnc2c1 [Example 139] | 0.01 to 0.1 |
| ≤ 0.01 |  | 0.01 to 0.1 | 0.01 to 0.1 | 0.1 to 1 |  | CC(C)(F)CCNC(=O)Nc1ccc(Nc2ncnc3cc(OC[C@H]4CCOC4)cc(F)c23)cc1 [Example 151] | 0.01 to 0.1 |
| 0.01 to 0.1 |  | 0.1 to 1 | 0.1 to 1 | 0.1 to 1 |  | COCCOc1cc(F)c2c(Nc3ccc(NC(=O)CC(=O)N4CCC(F)(F)CC4)cc3)ncnc2c1 [Example 164] | 0.01 to 0.1 |
| 0.01 to 0.1 |  | 0.1 to 1 | 0.1 to 1 | 0.1 to 1 |  | COC[C@H](C)Oc1cc(F)c2c(Nc3ccc(NC(=O)NCCC(C)(C)F)cc3)ncnc2c1 [Example 157] | 0.1 to 1 |
| 0.01 to 0.1 |  | 0.01 to 0.1 | 0.01 to 0.1 | 0.1 to 1 |  | COCCOc1cc(F)c2c(Nc3ccc(NC(=O)CC(=O)N4CCC(C)(C)CC4)cc3)ncnc2c1 [Example 152] | 0.01 to 0.1 |
| 0.1 to 1 |  | 0.1 to 1 | 0.1 to 1 | 0.1 to 1 |  | COCCOc1cc(F)c2c(Nc3ccc(NC(=O)CC(=O)N4C[C@@H](C)O[C@@H](C)C4)cc3)ncnc2c1 [Example 179] | 0.1 to 1 |
| 0.1 to 1 |  | > 1 | > 1 | > 1 |  | COCCOc1cc(F)c2c(Nc3ccc(NC(=O)CC(=O)N4CCCC4)cc3)ncnc2c1 [Example 186] | > 1 |
| 0.01 to 0.1 |  | 0.01 to 0.1 | 0.01 to 0.1 | 0.01 to 0.1 |  | COCCOc1cc(F)c2c(Nc3ccc(NC(=O)CC(=O)N4CCCC(C)(C)C4)cc3)ncnc2c1 [Example 166] | 0.01 to 0.1 |
